This test deals with human exon-50 DMD GFP reporter (ex50GFP). The test can be described thus: High-throughput screen in the Ex50GFP reporter cell line (C2C12 myoblasts, Prestwick library). To be noted: for Z Score, 'Compound + AO' screen: 10 μM compound after 300 nM h50AON; for Z Score, 'Compound + AO' screen / Z Score, 'Compound only' screen: GFP fluorescence after 48 h vs DMSO controls; for Z Score, 'Compound only' screen / Z Score, ratio of +AO/C ('Compound + AO' compared to 'Compound only'): 10 μM compound; for Z Score, 'Compound only' screen: no AO; for Z Score, ratio of +AO/C ('Compound + AO' compared to 'Compound only'): +AO fluorescence divided by 2.52 and by 'Compound only' fluorescence.

Where a name gives a salt, the structure may show the parent alone.

Take `COC(=O)C1=CO[C@@H](C)[C@H]2CN3CCc4c([nH]c5ccccc45)[C@@H]3C[C@H]12.Cl` [Ajmalicine hydrochloride]: the “Z Score, 'Compound + AO' screen” value came to 4.20 and the “Z Score, 'Compound only' screen” value is listed as 6.17.

In the case of `CCCSc1ccc2nc(NC(=O)OC)[nH]c2c1` [Albendazole], the “Z Score, 'Compound only' screen” value is listed as 7.00.

`CN1CCc2cccc3c2[C@H]1Cc1ccc(O)c(O)c1-3` [Apomorphine hydrochloride hemihydrate]: the “Z Score, 'Compound only' screen” value turned out to be 14.87.

With `Nc1nc(O)c2[nH]nnc2n1` [Azaguanine-8], the “Z Score, 'Compound only' screen” value is recorded as 7.64.

For the molecule `NC(=O)c1cc[n+](CC2=C(C(=O)[O-])N3C(=O)[C@@H](NC(=O)Cc4cccs4)[C@H]3SC2)cc1` [Cefalonium], the “Z Score, ratio of +AO/C ('Compound + AO' compared to 'Compound only')” value (shortened to “Z Score, ratio of +AO/C”) worked out at 2.97.

On to `Clc1ccc(Cn2c(CN3CCCC3)nc3ccccc32)cc1` [Clemizole hydrochloride], for which the “Z Score, 'Compound + AO' screen” value was found to be 3.46 and the “Z Score, ratio of +AO/C” value is on record as 4.49.

As to `Clc1ccccc1C(c1ccccc1)(c1ccccc1)n1ccnc1` [Clotrimazole], the “Z Score, 'Compound only' screen” value was determined as 6.50.

Turning to `COc1cccc2c1C(=O)c1c(O)c3c(c(O)c1C2=O)C[C@@](O)(C(C)=O)C[C@@H]3O[C@H]1C[C@H](N)[C@H](O)[C@H](C)O1` [Daunorubicin hydrochloride], the “Z Score, 'Compound only' screen” value was determined as 5.14.

With `Clc1ccc(COC(Cn2ccnc2)c2ccc(Cl)cc2Cl)cc1` (centres unmarked) [Econazole nitrate], the “Z Score, 'Compound + AO' screen” value was 3.38.

Regarding `Cc1c2ccncc2c(C)c2c1[nH]c1ccccc12` [Ellipticine], the “Z Score, 'Compound + AO' screen” value amounted to 5.17 and the “Z Score, 'Compound only' screen” value is 6.97.

For `COC(=O)Nc1nc2ccc(Sc3ccccc3)cc2[nH]1` [Fenbendazole], the “Z Score, 'Compound + AO' screen” value came to 4.83 and the “Z Score, 'Compound only' screen” value is reported as 6.56.

With `CC(NCCC(c1ccccc1)c1ccccc1)c1ccccc1` (centres unmarked) [Fendiline hydrochloride], the “Z Score, 'Compound only' screen” value was 7.39.

As for `CC1CCc2cc(F)cc3c(=O)c(C(=O)O)cn1c23` (centres unmarked) [Flumequine], the “Z Score, ratio of +AO/C” value worked out at 2.75.

Regarding `OCCN1CCN(CCCN2c3ccccc3Sc3ccc(C(F)(F)F)cc32)CC1` [Fluphenazine dihydrochloride], the “Z Score, ratio of +AO/C” value came to 4.05.

Consider `COc1ccc2c3c([nH]c2c1)C(C)=NCC3.Cl.O.O` [Harmaline hydrochloride dihydrate], for which the “Z Score, 'Compound + AO' screen” value came to 5.58 and the “Z Score, 'Compound only' screen” value is 5.78.

With `CC[C@H]1CN2CC[C@H]1C[C@H]2[C@H](O)c1ccnc2ccc(OC)cc12` [Hydroquinine hydrobromide hydrate], the “Z Score, ratio of +AO/C” value is on record as 2.82.

Regarding `CC(=O)OCC(=O)[C@@]1(O)CC[C@H]2[C@@H]3CCC4=CC(=O)C=C[C@]4(C)[C@@]3(F)[C@@H](O)C[C@@]21C` [Isoflupredone acetate], the “Z Score, ratio of +AO/C” value stood at 3.59.

Regarding `COC(=O)Nc1nc2ccc(C(=O)c3ccccc3)cc2[nH]1` [Mebendazole], the “Z Score, 'Compound + AO' screen” value was determined as 3.43.

For `OC(c1cc(C(F)(F)F)nc2c(C(F)(F)F)cccc12)C1CCCCN1` (centres unmarked) [Mefloquine hydrochloride], the “Z Score, 'Compound only' screen” value was 5.92.

For `C[C@@H](O)[C@H]1C(=O)N2C(C(=O)O)=C(S[C@@H]3CN[C@H](C(=O)N(C)C)C3)[C@H](C)[C@H]12` [Meropenem], the “Z Score, 'Compound + AO' screen” value was 3.56.

On to `COc1ccc2[nH]c3c(c2c1)CCN=C3C` [Methoxy-6-harmalan], for which the “Z Score, 'Compound + AO' screen” value came to 3.90 and the “Z Score, 'Compound only' screen” value was found to be 7.98.

As to `C[C@](N)(Cc1ccc(O)c(O)c1)C(=O)O` [Methyldopa (L,-)], the “Z Score, ratio of +AO/C” value came to 2.84.

For `CCN(CC)CCNC(=O)c1cc(Cl)c(N)cc1OC` [Metoclopramide monohydrochloride], the “Z Score, ratio of +AO/C” value was found to be 3.06.

The values are drawn from patent US9982260B2, “Identification of structurally similar small molecules that enhance therapeutic exon skipping” (The Regents of the University of California, priority 2013, dated 2018).
